Here are results for 31 compounds from patent publication US8163728B2, “Pyrazoles” (Hoffmann-La Roche Inc., priority 2009, dated 2012).

The test addresses T1, GABA A α5 (Homo sapiens, UniProt P18507+P31644).
T1 construct: expressed in transfected cells; host or cells: HEK293 cells, transiently transfected; membranes prepared from cell pellets
The experiment in a line: [3H]flumazenil competition binding, human GABA A α5β3γ2 receptors in HEK293 cell membranes. The settings on record: human receptor α5β3γ2 transiently transfected in HEK293; 0.5 nM [3H]flumazenil; 1 hour at 4° C.; means of two determinations; read-out: hKi GABA A α5. In short, it runs like this:
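Competition with [3H]flumazenil for binding to membranes of HEK293 cells transiently expressing human α5β3γ2, in Krebs-tris buffer pH 7.5. Incubated to equilibrium 1 h at 4 °C, filtered and scintillation-counted; Ki values are means of two determinations.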

Consider `Cc1onc(-c2ccc(F)cc2)c1CNc1cc(C(=O)NC2CCOCC2)n(C)n1` [Example 147, 5-{[3-(4-Fluoro-phenyl)-5-methyl-isoxazol-4-ylmethyl]-amino}-2-methyl-2H-pyrazole-3-carboxylic acid (tetrahydro-pyran-4-yl)-amide], for which the Ki was 4.7 nM.
Regarding `Cc1onc(-c2ccc(F)cc2)c1CNc1cc(C(=O)NC2(C)COC2)n(C)n1` [Example 148, 5-{[3-(4-Fluoro-phenyl)-5-methyl-isoxazol-4-ylmethyl]-amino}-2-methyl-2H-pyrazole-3-carboxylic acid (3-methyl-oxetan-3-yl)-amide], the Ki stood at 5.4 nM.
In the case of `Cn1nc(OCc2c(-c3ccc(Cl)cc3)noc2CO)cc1C(=O)NC1CCOC1` (racemic) [Example 110, Rac-5-[3-(4-Chloro-phenyl)-5-hydroxymethyl-isoxazol-4-ylmethoxy]-2-methyl-2H-pyrazole-3-carboxylic acid (tetrahydro-furan-3-yl)-amide], the Ki came to 2.7 nM.
For the compound `CCCCc1noc(C)c1COc1cc(C(=O)NC(CO)CO)[nH]n1` [Example 29, 5-(3-Butyl-5-methyl-isoxazol-4-ylmethoxy)-2H-pyrazole-3-carboxylic acid (2-hydroxy-1-hydroxymethyl-ethyl)-amide], the Ki is 10.4 nM.
`Cc1onc(-c2ccc(F)cc2)c1/C=C/c1cc(C(=O)NC2CCOCC2)n(C)n1` [Example 125, 5-{(E)-2-[3-(4-Fluoro-phenyl)-5-methyl-isoxazol-4-yl]vinyl}-2-methyl-2H-pyrazole-3-carboxylic acid (tetrahydro-pyran-4-yl)-amide]: the Ki worked out at 0.4 nM.
For `CC(C)NC(=O)c1cc(OCc2c(-c3ccc(Cl)cc3)noc2CO)nn1C` [Example 100, 5-[3-(4-Chloro-phenyl)-5-hydroxymethyl-isoxazol-4-ylmethoxy]-2-methyl-2H-pyrazole-3-carboxylic acid isopropylamide] the value was 5.8 nM; for `CCCCc1noc(C)c1COc1cc(C(=O)NC2CCOC2)[nH]n1` (racemic) [Example 28, Rac-5-(3-Butyl-5-methyl-isoxazol-4-ylmethoxy)-2H-pyrazole-3-carboxylic acid (tetrahydrofuran-3-yl)-amide], 5.4 nM; for `Cc1onc(-c2ccc(F)cn2)c1COc1cc(C(=O)NC2CCOC2)[nH]n1` (racemic) [Example 18, Rac-5-[3-(5-Fluoro-pyridin-2-yl)-5-methyl-isoxazol-4-ylmethoxy]-2H-pyrazole-3-carboxylic acid (tetrahydro-furan-3-yl)-amide], 1.2 nM.
In the case of `Cc1onc(-c2ccc(F)cn2)c1CNc1cc(C(=O)NC2CCOCC2)n(C)n1` [Example 164, 3-((3-(5-Fluoropyridin-2-yl)-5-methylisoxazol-4-yl)methylamino)-1-methyl-N-(tetrahydro-2H-pyran-4-yl)-1H-pyrazole-5-carboxamide], the Ki is 11.9 nM.
With `CCCCc1noc(CO)c1COc1cc(C(=O)NC2CCC2)n(C)n1` [Example 113, 5-(3-Butyl-5-hydroxymethyl-isoxazol-4-ylmethoxy)-2-methyl-2H-pyrazole-3-carboxylic acid cyclobutylamide], the Ki came to 39.6 nM.
For `CCC(CO)NC(=O)c1cc(OCc2c(-c3ccc(F)cc3)noc2C)nn1C` (single isomer, unassigned; (-)) [Example 69, (−)-5-[3-(4-Fluoro-phenyl)-5-methyl-isoxazol-4-ylmethoxy]-2-methyl-2H-pyrazole-3-carboxylic acid ((R or S)-1-hydroxymethyl-propyl)-amide] the value was 3.5 nM.
For the compound `Cc1onc(-c2ccccc2)c1COc1cc(C(=O)NC(C)C)n(C)n1` [Example 46, 2-Methyl-5-(5-methyl-3-phenyl-isoxazol-4-ylmethoxy)-2H-pyrazole-3-carboxylic acid isopropylamide], the Ki turned out to be 40.9 nM.
With `Cc1onc(-c2ccc(F)cc2)c1COc1cc(C(=O)NN2CCOCC2)n(C)n1` [Example 50, 5-[3-(4-Fluoro-phenyl)-5-methyl-isoxazol-4-ylmethoxy]-2-methyl-2H-pyrazole-3-carboxylic acid morpholin-4-ylamide], the Ki is 3.5 nM.
As for `Cc1onc(-c2ccc(F)cc2)c1COc1cc(C(=O)NCC2(O)CC2)n(C)n1` [Example 61, 5-[3-(4-Fluoro-phenyl)-5-methyl-isoxazol-4-ylmethoxy]-2-methyl-2H-pyrazole-3-carboxylic acid (1-hydroxy-cyclopropylmethyl)-amide], the Ki was 7.4 nM.
For `Cc1onc(-c2ccc(F)cn2)c1COc1cc(C(=O)N[C@@H](C)CO)nn1C` [Example 117, 5-[3-(5-Fluoro-pyridin-2-yl)-5-methyl-isoxazol-4-ylmethoxy]-1-methyl-1H-pyrazole-3-carboxylic acid ((S)-2-hydroxy-1-methyl-ethyl)-amide] the value was 6.8 nM.
Consider `Cc1onc(-c2ccc(F)cc2)c1/C=C/c1cc(C(=O)NCC(F)(F)F)[nH]n1` [Example 133, 5-{(E)-2-[3-(4-Fluoro-phenyl)-5-methyl-isoxazol-4-yl]vinyl}-2H-pyrazole-3-carboxylic acid (2,2,2-trifluoro-ethyl)-amide], for which the Ki came out at 4.1 nM.
Turning to `Cc1onc(-c2ccc(F)cc2)c1/C=C/c1cc(C(=O)N2CC3(COC3)C2)n(C)n1` [Example 135, (5-{(E)-2-[3-(4-Fluoro-phenyl)-5-methyl-isoxazol-4-yl]-vinyl}-2-methyl-2H-pyrazol-3-yl)-(2-oxa-6-aza-spiro[3.3]hept-6-yl)-methanone], the Ki stood at 2.4 nM.
Regarding `Cc1onc(-c2ccccn2)c1COc1cc(C(=O)N[C@@H](C)CO)n[nH]1` [Example 16, 5-(5-Methyl-3-pyridin-2-yl-isoxazol-4-ylmethoxy)-1H-pyrazole-3-carboxylic acid ((S)-2-hydroxy-1-methyl-ethyl)-amide], the Ki came to 11.1 nM.
In the case of `Cc1onc(-c2ccc(F)cc2)c1CNc1cc(C(=O)NC(C)C)n(C)n1` [Example 151, 5-{[3-(4-Fluoro-phenyl)-5-methyl-isoxazol-4-ylmethyl]-amino}-2-methyl-2H-pyrazole-3-carboxylic acid isopropylamide], the Ki stood at 13.6 nM.
On to `Cc1onc(-c2ccccn2)c1COc1cc(C(=O)NC2CCOCC2)n[nH]1` [Example 15, 5-(5-Methyl-3-pyridin-2-yl-isoxazol-4-ylmethoxy)-1H-pyrazole-3-carboxylic acid (tetrahydropyran-4-yl)-amide], for which the Ki amounted to 2.5 nM.
With `Cc1onc(C2CCOCC2)c1COc1cc(C(=O)NC2CCOCC2)n(C)n1` [Example 90, 2-Methyl-5-[5-methyl-3-(tetrahydro-pyran-4-yl)-isoxazol-4-ylmethoxy]-2H-pyrazole-3-carboxylic acid (tetrahydro-pyran-4-yl)-amide], the Ki worked out at 24.4 nM.
For `Cc1onc(-c2ccc(F)cc2)c1COc1cc(C(=O)NC2CCOCC2)n(C)n1` [Example 53, 5-[3-(4-Fluoro-phenyl)-5-methyl-isoxazol-4-ylmethoxy]-2-methyl-2H-pyrazole-3-carboxylic acid (tetrahydro-pyran-4-yl)-amide], the Ki was found to be 1.2 nM.
Next, `CCCCc1noc(C)c1COc1cc(C(=O)NC2CCOC2)[nH]n1` (single isomer, unassigned; (+)) [Example 35, (+)-(R or S)-3-((3-Butyl-5-methylisoxazol-4-yl)methoxy)-N-(tetrahydrofuran-3-yl)-1H-pyrazole-5-carboxamide]: 6 nM; `Cc1onc(-c2ccc(F)cc2)c1COc1cc(C(=O)Nc2ccn(C)n2)n(C)n1` [Example 63, 5-[3-(4-Fluoro-phenyl)-5-methyl-isoxazol-4-ylmethoxy]-2-methyl-2H-pyrazole-3-carboxylic acid (1-methyl-1H-pyrazol-3-yl)-amide]: 13.1 nM.
`CCCCc1noc(C)c1COc1cc(C(=O)N2CCOCC2)[nH]n1` [Example 36, [5-(3-Butyl-5-methyl-isoxazol-4-ylmethoxy)-2H-pyrazol-3-yl]morpholin-4-yl-methanone]: the Ki is 53.5 nM.
`Cc1onc(-c2ccc(F)cc2)c1COc1cc(C(=O)NN2CCCC2)n(C)n1` [Example 51, 5-[3-(4-Fluoro-phenyl)-5-methyl-isoxazol-4-ylmethoxy]-2-methyl-2H-pyrazole-3-carboxylic acid pyrrolidin-1-ylamide]: the Ki worked out at 11.4 nM.
Next, `Cc1onc(-c2ccc(F)cc2)c1COc1cc(C(=O)NN2CCOCC2)[nH]n1` [Example 8, 5-[3-(4-Fluoro-phenyl)-5-methyl-isoxazol-4-ylmethoxy]-2H-pyrazole-3-carboxylic acid morpholin-4-ylamide]: 1.8 nM; `Cc1onc(-c2ccc(F)cn2)c1COc1cc(C(=O)NC(C)C)[nH]n1` [Example 21, 5-[3-(5-Fluoro-pyridin-2-yl)-5-methyl-isoxazol-4-ylmethoxy]-2H-pyrazole-3-carboxylic acid isopropylamide]: 2.5 nM.
Consider `Cc1onc(-c2ccc(F)cc2)c1COc1cc(C(=O)NC2CCOC2)n(C)n1` (racemic) [Example 72, Rac-5-[3-(4-Fluoro-phenyl)-5-methyl-isoxazol-4-ylmethoxy]-2-methyl-2H-pyrazole-3-carboxylic acid (tetrahydro-furan-3-yl)-amide], for which the Ki was 1.5 nM.
In the case of `Cc1onc(-c2ccc(F)cc2)c1COc1cc(C(=O)NC2(C)COC2)n(C)n1` [Example 58, 5-[3-(4-Fluoro-phenyl)-5-methyl-isoxazol-4-ylmethoxy]-2-methyl-2H-pyrazole-3-carboxylic acid (3-methyl-oxetan-3-yl)-amide], the Ki was found to be 4.3 nM.
With `Cc1onc(-c2ccc(F)cc2)c1/C=C/c1cc(C(=O)NC(C)(C)CO)[nH]n1` [Example 138, 5-{(E)-2-[3-(4-Fluoro-phenyl)-5-methyl-isoxazol-4-yl]vinyl}-2H-pyrazole-3-carboxylic acid (2-hydroxy-1,1-dimethyl-ethyl)-amide], the Ki worked out at 11 nM.
